# Patent US8318785B2, “Pharmaceutical compounds” (Orion Corporation, priority 2005, dated 2012)
# pKi: −log10 of the molar value.
# Legend:
# [1] = molecular target: T1, recombinant human soluble form of COMT (hS-COMT) (Homo sapiens, UniProt P21964); test: Determination of COMT inhibiting activity in vitro; format: biochemical; details: tight binding inhibition constant, 25 μM SAM, substrate esculetin 10 μM, pH 7.4, 37° C.
# T1 sequence (P21964 1-221 isoform P21964-2): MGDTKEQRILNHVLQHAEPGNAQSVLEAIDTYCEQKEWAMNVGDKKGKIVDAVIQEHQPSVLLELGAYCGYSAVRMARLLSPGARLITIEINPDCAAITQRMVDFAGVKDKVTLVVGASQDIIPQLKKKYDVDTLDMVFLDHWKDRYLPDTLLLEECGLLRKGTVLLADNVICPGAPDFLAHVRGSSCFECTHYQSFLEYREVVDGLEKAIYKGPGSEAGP
# [2] = Determination of metabolic stability in vitro (glucuronidation); format: in vitro ADME; details: entacapone = 1.00; human liver microsomes 0.4 mg/ml, UDPGA 5 mM, test substance 100 μM, 60 min at 37° C.; glucuronide HPLC area relative to entacapone
# [3] = test system: isolated rat liver mitochondria; test: Determination of uncoupling of oxidative phosphorylation in vitro; details: threshold value of uncoupling (sample/Control slope ratio exceeding 2); oxygen consumption of rat liver mitochondria; tested 1-50 μM
Compound,pKi [1],Relative glucuronidation [2],Uncoupling [3]
"O=C(O)c1cccc(NC(=O)c2sc3c([N+](=O)[O-])c(O)c(O)cc3c2Cl)c1 [Compound of example 12, 3-[(3-Chloro-5,6-dihydroxy-7-nitro-benzo[b]thiophene-2-carbonyl)-amino]-benzoic acid]",9.22,0.03,
"O=C(c1cc2cc(O)c(O)c([N+](=O)[O-])c2s1)N1CCOCC1 [Compound of example 16, (5,6-Dihydroxy-7-nitro-benzo[b]thiophen-2-yl)-morpholin-4-yl-methanone]",9.05,<0.01,
"O=C1OCc2c1cc(O)c(O)c2[N+](=O)[O-] [Compound of example 23, 5,6-Dihydroxy-4-nitro-3H-isobenzofuran-1-one]",8.70,0.26,
"O=[N+]([O-])c1ccc(O)c([N+](=O)[O-])c1 [DNP, dinitrophenol]",,,10 µM

# Second part, led by results:
pKi [1],Relative glucuronidation [2],Compound,Uncoupling [3]
8.82,,"CCOC(=O)c1sc2c([N+](=O)[O-])c(O)c(O)cc2c1Cl [Compound of example 5, 3-Chloro-5,6-dihydroxy-7-nitro-benzo[b]thiophene-2-carboxylic acid ethyl ester]",
8.82,,"O=[N+]([O-])c1c(O)c(O)cc2c(Cl)csc12 [Compound of example 7, 3-Chloro-5,6-dihydroxy-7-nitro-benzo[b]thiophene]",
9.22,,"O=C(c1sc2c([N+](=O)[O-])c(O)c(O)cc2c1Cl)N1CCOCC1 [Compound of example 8, (3-Chloro-5,6-dihydroxy-7-nitro-benzo[b]thiophen-2-yl)-morpholin-4-yl-methanone]",
9.70,,"O=C(O)c1ccc(NC(=O)c2sc3c([N+](=O)[O-])c(O)c(O)cc3c2Cl)cc1 [Compound of example 13, 4-[(3-Chloro-5,6-dihydroxy-7-nitro-benzo[b]thiophene-2-carbonyl)-amino]-benzoic acid]",
